Reference: US20240092835A1, “NOVEL PEPTIDES CAPABLE OF ALTERING NK CELL ACTIVITY” (Massachusetts Institute of Technology, priority 2022, published 2024)
“Also recorded” adds a separate entry of the source. Where no end group is shown, it is not given here.

Tests used:
[1] = system: NKG2A−/NKG2C+ NK cells; experiment: NK cell activation markers in NKG2A-/NKG2C+ NK cells incubated with peptide and K562 expressing HLA-E (activation); format: cell-based, human; conditions: for effect on NKG2A−/NKG2C+ NK cell activation (in words): K562 expressing HLA-E, CD107a, IFNG, TNF, CCL3; for percentage of CCL3+ NK cells / percentage of CD107+ NK cells / percentage of IFNG+ NK cells / percentage of TNF+ NK cells: NKG2A-/NKG2C+ NK cells, K562/HLA-E
In short: (§1)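 Read-out: % NK cells positive for surface activation markers; a rise indicates activation, a fall indicates inhibition. Targets were K562 cells expressing HLA-E, loaded with human- or HCMV-proteome-derived peptides.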

[2] = system: NKG2A−/NKG2C− NK cells; experiment: NK cell activation markers in control NKG2A-/NKG2C- NK cells incubated with peptide and K562 expressing HLA-E; format: cell-based, human
In short: as §1

[3] = target: T1, HLA-E (Homo sapiens, UniProt P13747); experiment: HLA-E surface stabilization assay with RMA-S/HLA-E cells; format: cell-based; conditions: 30 μM peptide, 16 hours; for HLA-E surface expression stability (GeoMFI): anti-HLA-E antibody
T1 construct: expressed in transfected cells; host or cells: RMA-S/HLA-E cells (antigen processing-defective lymphoma cell line)
Procedure: HLA-E surface expression was assessed by measuring geometric mean fluorescence intensity (GeoMFI) in RMA-S cells following immunofluorescence staining with an anti-HLA-E antibody (Table 14). Increased GeoMFI was indicative of increased HLA-E surface expression stability following novel peptide exposures (FIG. 3).

[4] = target: CD94/NKG2A (Homo sapiens, UniProt P26715+Q13241); experiment: Steady-state surface plasmon resonance of peptide-HLA-E complex with CD94/NKG2A; format: binding; conditions: for Binding of peptide-HLA-E complexes to CD94/NKG2A normalized to a theoretical Rmax: steady-state SPR
[5] = target: CD94/NKG2C (Homo sapiens, UniProt P26717+Q13241); experiment: Steady-state surface plasmon resonance of peptide-HLA-E complex with CD94/NKG2C; format: binding; conditions: for Binding of peptide-HLA-E complexes to CD94/NKG2C normalized to a theoretical Rmax: steady-state SPR
CD94/NKG2C, sequence (P26717 94-231 limits assumed): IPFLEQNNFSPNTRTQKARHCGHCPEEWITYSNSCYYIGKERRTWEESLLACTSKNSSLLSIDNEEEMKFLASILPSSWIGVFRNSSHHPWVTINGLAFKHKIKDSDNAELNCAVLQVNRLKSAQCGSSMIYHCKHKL
CD94/NKG2C, sequence (Q13241 32-179 limits assumed): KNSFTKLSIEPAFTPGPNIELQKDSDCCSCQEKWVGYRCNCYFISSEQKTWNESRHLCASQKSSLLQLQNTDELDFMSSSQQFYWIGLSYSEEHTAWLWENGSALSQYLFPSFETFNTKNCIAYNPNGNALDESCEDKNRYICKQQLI

T1 sequence (P13747 22-358): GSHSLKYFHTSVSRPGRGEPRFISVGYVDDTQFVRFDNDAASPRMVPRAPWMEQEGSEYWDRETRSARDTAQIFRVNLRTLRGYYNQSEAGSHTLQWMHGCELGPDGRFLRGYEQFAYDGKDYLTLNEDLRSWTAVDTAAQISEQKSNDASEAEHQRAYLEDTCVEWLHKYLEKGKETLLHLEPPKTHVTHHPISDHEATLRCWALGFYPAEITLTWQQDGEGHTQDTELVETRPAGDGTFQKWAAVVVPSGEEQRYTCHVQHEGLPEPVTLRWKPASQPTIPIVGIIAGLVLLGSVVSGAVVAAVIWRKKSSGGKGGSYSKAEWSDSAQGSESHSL
T1 sequence (P61769 21-119 partner): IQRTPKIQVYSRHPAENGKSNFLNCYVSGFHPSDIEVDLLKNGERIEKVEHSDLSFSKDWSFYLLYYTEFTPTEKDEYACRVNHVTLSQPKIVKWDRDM
CD94/NKG2A, sequence (P26715 94-233 limits assumed): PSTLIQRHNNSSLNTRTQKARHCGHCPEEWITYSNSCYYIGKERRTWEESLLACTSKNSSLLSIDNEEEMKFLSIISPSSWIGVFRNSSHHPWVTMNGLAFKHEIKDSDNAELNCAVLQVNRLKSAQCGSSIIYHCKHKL
CD94/NKG2A, sequence (Q13241 32-179 limits assumed): as the sequence (Q13241 32-179 limits assumed) above

VNPGRSLFL [human5, VNPGRSLFL]
effect on NKG2A−/NKG2C+ NK cell activation (in words) ([1]; listed as SEQ ID NO. 3): activate | effect on NKG2A−/NKG2C+ NK cell activation (in words) ([1]; listed as h5): activated | percentage of CCL3+ NK cells ([1]; Trial 1): 60.9% | percentage of CD107+ NK cells ([1]; Trial 1): 59.7% | percentage of IFNG+ NK cells ([1]; Trial 1): 35.3% | percentage of TNF+ NK cells ([1]; Trial 1): 17.4% | percentage of CCL3+ NK cells ([1]; Trial 2): 74.5% | percentage of CD107+ NK cells ([1]; Trial 2): 61.8% | percentage of IFNG+ NK cells ([1]; Trial 2): 43.2% | percentage of TNF+ NK cells ([1]; Trial 2): 23.9% | percentage of CCL3+ NK cells ([1]; Trial 3): 72.5% | percentage of CD107+ NK cells ([1]; Trial 3): 72.6% | percentage of IFNG+ NK cells ([1]; Trial 3): 57.2% | percentage of TNF+ NK cells ([1]; Trial 3): 42.2% | percentage of CCL3+ NK cells ([1]; Trial 4): 63.8% | percentage of CD107+ NK cells ([1]; Trial 4): 64.3% | percentage of IFNG+ NK cells ([1]; Trial 4): 51.1% | percentage of TNF+ NK cells ([1]; Trial 4): 36% | percentage of CCL3+ NK cells ([1]; Trial 5): 69.7% | percentage of CD107+ NK cells ([1]; Trial 5): 67.6% | percentage of IFNG+ NK cells ([1]; Trial 5): 53.4% | percentage of TNF+ NK cells ([1]; Trial 5): 40.4% | percentage of CCL3+ NK cells ([1]; Trial 6): 47.2% | percentage of CD107+ NK cells ([1]; Trial 6): 46.8% | percentage of IFNG+ NK cells ([1]; Trial 6): 28.6% | percentage of TNF+ NK cells ([1]; Trial 6): 15% | percentage CCL3+ NK cells ([2]; Trial 1): 33% | percentage CD107+ NK cells ([2]; Trial 1): 26.5% | percentage TNF+ NK cells ([2]; Trial 1): 4.11% | percentage of IFNG+ NK cells ([2]; Trial 1): 14.6% | percentage CCL3+ NK cells ([2]; Trial 2): 55.5% | percentage CD107+ NK cells ([2]; Trial 2): 32.5% | percentage TNF+ NK cells ([2]; Trial 2): 10.4% | percentage of IFNG+ NK cells ([2]; Trial 2): 26.3% | percentage CCL3+ NK cells ([2]; Trial 3): 53.4% | percentage CD107+ NK cells ([2]; Trial 3): 48.1% | percentage TNF+ NK cells ([2]; Trial 3): 18% | percentage of IFNG+ NK cells ([2]; Trial 3): 41.4% | percentage CCL3+ NK cells ([2]; Trial 4): 30.6% | percentage CD107+ NK cells ([2]; Trial 4): 27.8% | percentage TNF+ NK cells ([2]; Trial 4): 9.09% | percentage of IFNG+ NK cells ([2]; Trial 4): 18.7% | percentage CCL3+ NK cells ([2]; Trial 5): 23.5% | percentage CD107+ NK cells ([2]; Trial 5): 19% | percentage TNF+ NK cells ([2]; Trial 5): 6.08% | percentage of IFNG+ NK cells ([2]; Trial 5): 14.6% | percentage CCL3+ NK cells ([2]; Trial 6): 22% | percentage CD107+ NK cells ([2]; Trial 6): 20.1% | percentage TNF+ NK cells ([2]; Trial 6): 4.34% | percentage of IFNG+ NK cells ([2]; Trial 6): 10.7% | HLA-E surface expression stability (GeoMFI) ([3]; Trial 1): 569 GeoMFI | HLA-E surface expression stability (GeoMFI) ([3]; Trial 2): 509 GeoMFI | HLA-E surface expression stability (GeoMFI) ([3]; Trial 3): 566 GeoMFI | HLA-E surface expression stability (GeoMFI) ([3]; Trial 4): 750 GeoMFI | HLA-E surface expression stabilization strength (in words) ([3]; listed as BFAR263-271): closest to the experimental negative control (DMSO); also recorded: lowest | binding of peptide-HLA-E complex to CD94/NKG2A normalized to a fitted Rmax ([4]; CD94/NKG2A concentration 0 μM): −0.002 | binding of peptide-HLA-E complex to CD94/NKG2A normalized to a fitted Rmax ([4]; CD94/NKG2A concentration 0.1 μM): 0.177 | binding of peptide-HLA-E complex to CD94/NKG2A normalized to a fitted Rmax ([4]; CD94/NKG2A concentration 0.2 μM): 0.288 | binding of peptide-HLA-E complex to CD94/NKG2A normalized to a fitted Rmax ([4]; CD94/NKG2A concentration 0.4 μM): 0.434 | binding of peptide-HLA-E complex to CD94/NKG2A normalized to a fitted Rmax ([4]; CD94/NKG2A concentration 0.8 μM): 0.593 | binding of peptide-HLA-E complex to CD94/NKG2A normalized to a fitted Rmax ([4]; CD94/NKG2A concentration 1.6 μM): 0.739 | binding of peptide-HLA-E complex to CD94/NKG2A normalized to a fitted Rmax ([4]; CD94/NKG2A concentration 3.2 μM): 0.863 | binding of peptide-HLA-E complex to CD94/NKG2A normalized to a fitted Rmax ([4]; CD94/NKG2A concentration 6.4 μM): 0.955 | binding of peptide-HLA-E complex to CD94/NKG2A normalized to a fitted Rmax ([4]; CD94/NKG2A concentration 12.8 μM): 1.018 | binding of peptide-HLA-E complex to CD94/NKG2A normalized to a fitted Rmax ([4]; CD94/NKG2A concentration 25.6 μM): 1.059 | binding of peptide-HLA-E complex to CD94/NKG2A normalized to a fitted Rmax ([4]; CD94/NKG2A concentration 51.2 μM): 1.081 | binding of peptide-HLA-E complex to CD94/NKG2A normalized to a fitted Rmax ([4]; CD94/NKG2A concentration 102.4 μM): 1.105 | Binding of peptide-HLA-E complexes to CD94/NKG2A normalized to a theoretical Rmax ([4]; CD94/NKG2A analyte concentration 0.000 μM): −0.001 | Binding of peptide-HLA-E complexes to CD94/NKG2A normalized to a theoretical Rmax ([4]; CD94/NKG2A analyte concentration 0.100 μM): 0.074 | Binding of peptide-HLA-E complexes to CD94/NKG2A normalized to a theoretical Rmax ([4]; CD94/NKG2A analyte concentration 0.200 μM): 0.120 | Binding of peptide-HLA-E complexes to CD94/NKG2A normalized to a theoretical Rmax ([4]; CD94/NKG2A analyte concentration 0.400 μM): 0.181 | Binding of peptide-HLA-E complexes to CD94/NKG2A normalized to a theoretical Rmax ([4]; CD94/NKG2A analyte concentration 0.800 μM): 0.247 | Binding of peptide-HLA-E complexes to CD94/NKG2A normalized to a theoretical Rmax ([4]; CD94/NKG2A analyte concentration 1.600 μM): 0.308 | Binding of peptide-HLA-E complexes to CD94/NKG2A normalized to a theoretical Rmax ([4]; CD94/NKG2A analyte concentration 3.200 μM): 0.360 | Binding of peptide-HLA-E complexes to CD94/NKG2A normalized to a theoretical Rmax ([4]; CD94/NKG2A analyte concentration 6.400 μM): 0.398 | Binding of peptide-HLA-E complexes to CD94/NKG2A normalized to a theoretical Rmax ([4]; CD94/NKG2A analyte concentration 12.800 μM): 0.425 | Binding of peptide-HLA-E complexes to CD94/NKG2A normalized to a theoretical Rmax ([4]; CD94/NKG2A analyte concentration 25.600 μM): 0.442 | Binding of peptide-HLA-E complexes to CD94/NKG2A normalized to a theoretical Rmax ([4]; CD94/NKG2A analyte concentration 51.200 μM): 0.451 | Binding of peptide-HLA-E complexes to CD94/NKG2A normalized to a theoretical Rmax ([4]; CD94/NKG2A analyte concentration 102.400 μM): 0.461 | binding of peptide-HLA-E complex to CD94/NKG2C normalized to a fitted Rmax ([5]; CD94/NKG2C concentration 0 μM): −0.001 | binding of peptide-HLA-E complex to CD94/NKG2C normalized to a fitted Rmax ([5]; CD94/NKG2C concentration 0.1 μM): 0.064 | binding of peptide-HLA-E complex to CD94/NKG2C normalized to a fitted Rmax ([5]; CD94/NKG2C concentration 0.2 μM): 0.119 | binding of peptide-HLA-E complex to CD94/NKG2C normalized to a fitted Rmax ([5]; CD94/NKG2C concentration 0.4 μM): 0.205 | binding of peptide-HLA-E complex to CD94/NKG2C normalized to a fitted Rmax ([5]; CD94/NKG2C concentration 0.8 μM): 0.333 | binding of peptide-HLA-E complex to CD94/NKG2C normalized to a fitted Rmax ([5]; CD94/NKG2C concentration 1.6 μM): 0.488 | binding of peptide-HLA-E complex to CD94/NKG2C normalized to a fitted Rmax ([5]; CD94/NKG2C concentration 3.2 μM): 0.650 | binding of peptide-HLA-E complex to CD94/NKG2C normalized to a fitted Rmax ([5]; CD94/NKG2C concentration 6.4 μM): 0.795 | binding of peptide-HLA-E complex to CD94/NKG2C normalized to a fitted Rmax ([5]; CD94/NKG2C concentration 12.8 μM): 0.902 | binding of peptide-HLA-E complex to CD94/NKG2C normalized to a fitted Rmax ([5]; CD94/NKG2C concentration 25.6 μM): 0.971 | binding of peptide-HLA-E complex to CD94/NKG2C normalized to a fitted Rmax ([5]; CD94/NKG2C concentration 51.2 μM): 0.990 | binding of peptide-HLA-E complex to CD94/NKG2C normalized to a fitted Rmax ([5]; CD94/NKG2C concentration 102.4 μM): 0.983 | Binding of peptide-HLA-E complexes to CD94/NKG2C normalized to a theoretical Rmax ([5]; CD94/NKG2C analyte concentration 0 μM): 0.000 | Binding of peptide-HLA-E complexes to CD94/NKG2C normalized to a theoretical Rmax ([5]; CD94/NKG2C analyte concentration 0.1 μM): 0.024 | Binding of peptide-HLA-E complexes to CD94/NKG2C normalized to a theoretical Rmax ([5]; CD94/NKG2C analyte concentration 0.2 μM): 0.044 | Binding of peptide-HLA-E complexes to CD94/NKG2C normalized to a theoretical Rmax ([5]; CD94/NKG2C analyte concentration 0.4 μM): 0.076 | Binding of peptide-HLA-E complexes to CD94/NKG2C normalized to a theoretical Rmax ([5]; CD94/NKG2C analyte concentration 0.8 μM): 0.123 | Binding of peptide-HLA-E complexes to CD94/NKG2C normalized to a theoretical Rmax ([5]; CD94/NKG2C analyte concentration 1.6 μM): 0.180 | Binding of peptide-HLA-E complexes to CD94/NKG2C normalized to a theoretical Rmax ([5]; CD94/NKG2C analyte concentration 3.2 μM): 0.240 | Binding of peptide-HLA-E complexes to CD94/NKG2C normalized to a theoretical Rmax ([5]; CD94/NKG2C analyte concentration 6.4 μM): 0.294 | Binding of peptide-HLA-E complexes to CD94/NKG2C normalized to a theoretical Rmax ([5]; CD94/NKG2C analyte concentration 12.8 μM): 0.333 | Binding of peptide-HLA-E complexes to CD94/NKG2C normalized to a theoretical Rmax ([5]; CD94/NKG2C analyte concentration 25.6 μM): 0.359 | Binding of peptide-HLA-E complexes to CD94/NKG2C normalized to a theoretical Rmax ([5]; CD94/NKG2C analyte concentration 51.2 μM): 0.366 | Binding of peptide-HLA-E complexes to CD94/NKG2C normalized to a theoretical Rmax ([5]; CD94/NKG2C analyte concentration 102.4 μM): 0.363
